Activity calls are given as the source filed them. No cut-off for these calls is given here.
How the values were obtained:
[1] = tested on: C2C12; test: Agonist activity at adiponectin receptor in mouse C2C12 cells assessed as increase in AMPK phosphorylation at 10 uM measured after 2 hrs by Western blot analysis; assay type: cell-based; details: filed as agonist
[2] = tested on: C2C12; test: Induction of glucose consumption in mouse C2C12 cells at 10 uM measured after 12 hrs (reference value: 100%); assay type: functional
[3] = tested on: HepG2; test: Induction of AMPK in human HepG2 cells at 10 uM measured after 0.5 to 12 hrs by Western blot analysis; assay type: cell-based; details: filed as activator, time 0.5-12 hrs
[4] = tested on: HepG2; test: Cytotoxicity against human HepG2 cells at 5 to 20 uM measured after 72 hrs by MTT assay; assay type: toxicity, cell-based; details: hepg2, 72 h, dose 5-20 µM
[5] = tested on: Mus musculus; test: Hypoglycemic activity in IG dosed lean C57BL/6J mouse assessed as reduction in blood glucose level administered 2 hrs prior to glucose challenge measured up to 90 mins by IPGTT; assay type: functional, organism-based; details: dose 50-100 mg/kg, time 3.5 hrs
[6] = tested on: HepG2; test: Induction of AMPK phosphorylation in human HepG2 cells at 0.1 to 20 uM measured after 2 hrs by Western blot analysis; assay type: cell-based; details: filed as activator, dose 0.1-20 µM
[7] = tested on: Mus musculus; test: Anti-hyperglycemic activity in db/db mouse assessed as improvement in insulin resistance at 100 mg/kg, IG administered once daily for 6 weeks by insulin tolerance test; assay type: functional, organism-based
[8] = target: T1, Acetyl-CoA carboxylase (Homo sapiens) (UniProt Q13085+O00763); test: Induction of ACC phosphorylation in human HepG2 cells measured after 2 hrs by Western blot analysis; assay type: cell-based; details: filed as activator, dose 0.1-20 µM
[9] = target: T1, Acetyl-CoA carboxylase (Homo sapiens); test: Induction of ACC phosphorylation in human HepG2 cells measured at 10 uM by Western blot analysis; assay type: cell-based; details: filed as activator, time 0.5-12 hrs, TDE = time-dependent effect
[10] = Half life in mouse liver microsomes by LC/MS analysis; assay type: ADME, Microsome
[11] = tested on: C2C12; test: Agonist activity at adiponectin receptor in mouse C2C12 cells assessed as increase in ACC phosphorylation measured after 2 hrs by Western blot analysis; assay type: cell-based; details: filed as agonist, dose 0.1-20 µM
[12] = Toxicity in db/db mouse assessed as effect on body weight at 100 mg/kg, IG administered once daily for 2 to 6 weeks measured weekly during compound dosing; assay type: organism-based; details: in vivo, po, time 2-6 weeks
[13] = Stability in mouse liver microsomes assessed as parent compound remaining preincubated for 5 mins followed by NADPH addition measured after 45 mins by LC/MS analysis; assay type: ADME, Microsome; details: time 50 min, read-out: Stability
[14] = Intrinsic clearance in mouse liver microsomes preincubated for 5 mins followed by NADPH addition measured after 45 mins by LC/MS analysis; assay type: ADME, Microsome; details: time 50 min, read-out: CLH
[15] = tested on: Mus musculus; test: Anti-hyperglycemic activity in db/db mouse assessed as reduction in blood glucose level at 100 mg/kg, IG administered once daily for 2 to 6 weeks measured weekly during compound dosing; assay type: functional, organism-based; details: time 2-6 weeks
[16] = Intrinsic clearance in human liver microsomes preincubated for 5 mins followed by NADPH addition measured after 45 mins by LC/MS analysis; assay type: ADME, Microsome; details: time 50 min, read-out: CLH
[17] = Half life in human liver microsomes by LC/MS analysis; assay type: ADME, Microsome
[18] = Stability in human liver microsomes assessed as parent compound remaining preincubated for 5 mins followed by NADPH addition measured after 45 mins by LC/MS analysis; assay type: ADME, Microsome; details: time 50 min, read-out: Stability
[19] = target: 5'-AMP-activated protein kinase (Mus musculus) (UniProt Q5EG47+Q8BRK8+Q6PAM0+O54950+Q91WG5+Q9R078+Q8BGM7); test: Induction of AMPK phosphorylation in mouse C2C12 cells at 10 uM measured after 1 to 12 hrs by Western blot analysis; assay type: cell-based; details: filed as activator, time 1-12 hrs
[20] = tested on: C2C12; test: Cytotoxicity against mouse C2C12 cells at 5 to 20 uM measured after 72 hrs by MTT assay; assay type: toxicity, cell-based; details: c2c12, 72 h, dose 5-20 µM
[21] = tested on: Mus musculus; test: Hypoglycemic activity in lean C57BL/6J mouse assessed as reduction in blood glucose level at 10 mg/kg, IG administered 2 hrs prior to glucose challenge measured up to 90 mins by IPGTT; assay type: functional, organism-based; details: time 3.5 hrs
[22] = Agonist activity at adiponectin receptor in mouse C2C12 cells assessed as increase in AMPK phosphorylation; assay type: cell-based
[23] = tested on: Mus musculus; test: Hypoglycemic activity in lean C57BL/6J mouse assessed as reduction in blood glucose level at 100 mg/kg, IG administered 2 hrs prior to glucose challenge measured up to 90 mins by IPGTT; assay type: functional, organism-based; details: time 3.5 hrs

Compound	Activity [1]	Activity [2] [%]	other results
COc1ccc(/C=C/C(=O)N2CCN(C(=O)C(C)(C)Oc3ccc(C(=O)c4ccccc4)cc3)CC2)cc1OC	Active	135.8	
COc1cc(/C=C/C(=O)NC2CCN(C(=O)C(C)(C)Oc3ccc(C(=O)c4ccccc4)cc3)CC2)ccc1O	Active	128.5	
CC(C)(Oc1ccc(C(=O)c2ccccc2)cc1)C(=O)N1CCN(C(=O)/C=C/c2ccccc2)CC1	Active	132.5	
COc1ccc(/C=C/C(=O)N2CCC(NC(=O)C(C)(C)Oc3ccc(C(=O)c4ccc(Cl)cc4)cc3)CC2)cc1OC	Active	125.1	
COc1ccc(/C=C/C(=O)N2CCC(NC(=O)C(C)(C)Oc3ccc(C(=O)c4ccccc4)cc3)CC2)cc1OC	Active	104.5	
COc1cc(/C=C/C(=O)N2CCN(C(=O)C(C)(C)Oc3ccc(C(=O)c4ccccc4)cc3)CC2)ccc1O	Active	136.4	
COc1ccc(/C=C/C(=O)NC2CCN(C(=O)C(C)(C)Oc3ccc(C(=O)c4ccccc4)cc3)CC2)cc1OC	Active	116.7	
CC(C)(Oc1ccc(C(=O)c2ccc(Cl)cc2)cc1)C(=O)N1CCC(NC(=O)/C=C/c2ccccc2)CC1	Active	113	
COc1ccc(/C=C/C(=O)NC2CCN(C(=O)C(C)(C)Oc3ccc(C(=O)c4ccc(Cl)cc4)cc3)CC2)cc1OC	Active	118.3	
COc1cc(/C=C/C(=O)N2CCC(NC(=O)C(C)(C)Oc3ccc(C(=O)c4ccc(Cl)cc4)cc3)CC2)ccc1O	Active	126.1	
COc1cc(/C=C/C(=O)N2CCC(NC(=O)C(C)(C)Oc3ccc(C(=O)c4ccccc4)cc3)CC2)ccc1O	Active	115.2	
COc1cc(/C=C/C(=O)N2CCN(C(=O)C(C)(C)Oc3ccc(C(=O)c4ccc(Cl)cc4)cc3)CC2)ccc1O	Active	141.7	Activity [3]: Active; Activity [4]: Non-Toxic; Activity [5]: Dose-Dependent Effect; Activity [6]: Active; Activity [7]: Active; Activity [8]: Dose-Dependent Effect; Activity [9]: Tde; half-life [10]: 33 min; Activity [11]: Dose-Dependent Effect; Activity [12]: Non-Toxic; remaining at 0.75 h [13]: 38%; CLint scaled [14]: 156 mL/min/kg; Activity [15]: Active; CLint scaled [16]: 21 mL/min/kg; half-life [17]: 87 min; remaining at 0.75 h [18]: 69%; Activity [19]: Active; Activity [20]: Non-Toxic
O[C@@H]1CO[C@H]2[C@@H]1OC[C@H]2Oc1nc2nc(-c3ccc(-c4ccccc4)cc3)c(Cl)cc2[nH]1			Activity [21]: Active
CC(C)(Oc1ccc(C(=O)c2ccc(Cl)cc2)cc1)C(=O)NC1CCN(C(=O)/C=C/c2ccccc2)CC1	Active	117.3	
O=C(c1ccc(F)cc1)C1CCN(CCn2c(=O)[nH]c3ccccc3c2=O)CC1 [KETANSERIN]			half-life [10]: 26 min; remaining at 0.75 h [13]: 29%; CLint scaled [14]: 245 mL/min/kg; half-life [17]: 28 min; remaining at 0.75 h [18]: 31%
CC(C)(Oc1ccc(C(=O)c2ccccc2)cc1)C(=O)N1CCC(NC(=O)/C=C/c2ccccc2)CC1	Active	117.6	
COc1ccc(/C=C/C(=O)N2CCN(C(=O)C(C)(C)Oc3ccc(C(=O)c4ccc(Cl)cc4)cc3)CC2)cc1OC	Active	138.5	
CC(C)(Oc1ccc(C(=O)c2ccc(Cl)cc2)cc1)C(=O)N1CCN(C(=O)/C=C/c2ccccc2)CC1	Active	129	
CC(C)(Oc1ccc(C(=O)c2ccccc2)cc1)C(=O)NC1CCN(C(=O)/C=C/c2ccccc2)CC1	Active	121.3	
O=C(COc1ccc(C(=O)c2ccccc2)cc1)NC1CCN(Cc2ccccc2)CC1	Active	135.2	EC50 [22]: ~10 µM; Activity [23]: Active
